Reference: ChEMBL document CHEMBL1152546, “N-[2-chloro-9H-purin-6-yl]-N-cyclopropylglycylamino acids and derivatives: synthesis, evaluation as a class of novel analgesics, and 3D QSAR analysis” (2009)

Legend:
Format in all cases: functional
Mus musculus [1] = assay: Analgesic activity in ICR mouse assessed as pain threshold variation at 25 umol/kg, po administered as single dose measured after 30 mins by tail flick test relative to control
Mus musculus [2] = assay: Analgesic activity in ICR mouse assessed as pain threshold variation at 25 umol/kg, po administered as single dose measured after 60 mins by tail flick test relative to control
Mus musculus [3] = assay: Analgesic activity in ICR mouse assessed as pain threshold variation at 25 umol/kg, po administered as single dose measured after 90 mins by tail flick test relative to control
Mus musculus [4] = assay: Analgesic activity in ICR mouse assessed as pain threshold variation at 25 umol/kg, po administered as single dose measured after 120 mins by tail flick test relative to control
Mus musculus [5] = assay: Analgesic activity in ICR mouse assessed as pain threshold variation at 25 umol/kg, po administered as single dose measured after 150 mins by tail flick test relative to control
Mus musculus [6] = assay: Analgesic activity in ICR mouse assessed as pain threshold variation at 25 umol/kg, po administered as single dose measured after 180 mins by tail flick test relative to control

| Compound | Activity (Mus musculus [1]) [%] | Activity (Mus musculus [2]) [%] | Activity (Mus musculus [3]) [%] | Activity (Mus musculus [4]) [%] | Activity (Mus musculus [5]) [%] | Activity (Mus musculus [6]) [%] |
| --- | --- | --- | --- | --- | --- | --- |
| O=C(CN(c1ncnc2c1ncn2C1CCCCO1)C1CC1)N[C@@H](Cc1ccc(O)cc1)C(=O)OCc1ccccc1 (some centres undefined) | 20.53 | 35.82 | 36.45 | 17.44 | 8.71 | 5.02 |
| CCOC(=O)CN(c1nc(Cl)nc2c1ncn2C1CCCCO1)C1CC1 (centres undefined) | 9.92 | 22.64 | 13.04 | 14.91 | 11.85 | 5.33 |
| N=C(N)NCCC[C@H](NC(=O)CN(c1nc(Cl)nc2[nH]cnc12)C1CC1)C(=O)OCc1ccccc1 | 23.19 | 30.57 | 30.44 | 10.24 | 6.12 | 1.78 |
| NC(=O)C[C@H](NC(=O)CN(c1nc(Cl)nc2[nH]cnc12)C1CC1)C(=O)OCc1ccccc1 | 24.41 | 36.36 | 32.27 | 15.13 | 13.49 | 5.3 |
| O=C(CN(c1ncnc2c1ncn2C1CCCCO1)C1CC1)N[C@@H](Cc1ccccc1)C(=O)OCc1ccccc1 (some centres undefined) | 39.2 | 45.54 | 37.73 | 26.29 | 3.49 | 1.79 |
| O=C(CN(c1nc(Cl)nc2[nH]cnc12)C1CC1)N[C@@H](Cc1ccc(O)cc1)C(=O)O | 46.22 | 43.23 | 33.92 | 23.69 | 13.71 | 8.15 |
| NC(=O)C[C@H](NC(=O)CN(c1ncnc2c1ncn2C1CCCCO1)C1CC1)C(=O)OCc1ccccc1 (some centres undefined) | 34.53 | 30.54 | 34.95 | 29.15 | 21.71 | 15.45 |
| NC(=O)CC[C@H](NC(=O)CN(c1nc(Cl)nc2[nH]cnc12)C1CC1)C(=O)O | 33.11 | 38.4 | 41.1 | 17.75 | 11.38 | 9.07 |
| NC(=O)CC[C@H](NC(=O)CN(c1ncnc2c1ncn2C1CCCCO1)C1CC1)C(=O)OCc1ccccc1 (some centres undefined) | 46.96 | 39.4 | 37.82 | 22.34 | 10.72 | 7.71 |
| C[C@H](NC(=O)CN(c1nc(Cl)nc2[nH]cnc12)C1CC1)C(=O)O | 48.1 | 44.64 | 43.53 | 28.41 | 14.68 | 6.68 |
| CSCC[C@H](NC(=O)CN(c1ncnc2c1ncn2C1CCCCO1)C1CC1)C(=O)OCc1ccccc1 (some centres undefined) | 30.04 | 40.97 | 42.7 | 28.66 | 17.47 | 12.89 |
| O=C(OCc1ccccc1)[C@@H]1CCCN1C(=O)CN(c1ncnc2c1ncn2C1CCCCO1)C1CC1 (some centres undefined) | 32.25 | 36.73 | 23.31 | 17.49 | 7.85 | 6.63 |
| O=C(O)C[C@H](NC(=O)CN(c1nc(Cl)nc2[nH]cnc12)C1CC1)C(=O)O | 19.85 | 38.9 | 25.14 | 21.95 | 11.63 | 3.17 |
| O=C(O)CNC(=O)CN(c1nc(Cl)nc2[nH]cnc12)C1CC1 | 32.16 | 38.89 | 32.31 | 19.81 | 9.08 | 8.11 |
| C[C@H](NC(=O)CN(c1ncnc2c1ncn2C1CCCCO1)C1CC1)C(=O)OCc1ccccc1 (some centres undefined) | 55.91 | 53 | 32.06 | 25.3 | 6.01 | 5.96 |
| CC(C)C[C@H](NC(=O)CN(c1ncnc2c1ncn2C1CCCCO1)C1CC1)C(=O)OCc1ccccc1 (some centres undefined) | 26.2 | 34.19 | 28.22 | 12.79 | 6.47 | 0.04 |
| CC(C)(C)OC(=O)NCCCC[C@H](NC(=O)CN(c1ncnc2c1ncn2C1CCCCO1)C1CC1)C(=O)OCc1ccccc1 (some centres undefined) | 18.33 | 32.66 | 32.85 | 28.39 | 17.2 | 10.06 |

| Compound | Activity (Mus musculus [1]) [%] | Activity (Mus musculus [2]) [%] | Activity (Mus musculus [3]) [%] | Activity (Mus musculus [4]) [%] | Activity (Mus musculus [5]) [%] | Activity (Mus musculus [6]) [%] |
| --- | --- | --- | --- | --- | --- | --- |
| O=C(CN(c1ncnc2c1ncn2C1CCCCO1)C1CC1)N[C@@H](CCC(=O)OCc1ccccc1)C(=O)OCc1ccccc1 (some centres undefined) | 32.61 | 34.74 | 25.2 | 20.71 | 14.14 | 10.93 |
| O=C(CN(c1nc(Cl)nc2[nH]cnc12)C1CC1)N[C@@H](Cc1c[nH]c2ccccc12)C(=O)O | 17.55 | 17.84 | 18.3 | 8.19 | 5.27 | 3.91 |
| CC[C@H](C)[C@H](NC(=O)CN(c1nc(Cl)nc2[nH]cnc12)C1CC1)C(=O)O | 30.34 | 35.97 | 27.39 | 21.42 | 6.71 | 3.9 |
| CC(C)C[C@H](NC(=O)CN(c1nc(Cl)nc2[nH]cnc12)C1CC1)C(=O)OCc1ccccc1 | 33.91 | 27.26 | 15.21 | 8.58 | 5.26 | 4.29 |
| C[C@@H](O)[C@H](NC(=O)CN(c1ncnc2c1ncn2C1CCCCO1)C1CC1)C(=O)OCc1ccccc1 (some centres undefined) | 23.61 | 28.36 | 23.38 | 10.91 | 6.53 | 2.34 |
| O=C(OCc1ccccc1)[C@@H]1CCCN1C(=O)CN(c1nc(Cl)nc2[nH]cnc12)C1CC1 | 33.18 | 34.37 | 43.28 | 38.35 | 31.09 | 17.63 |
| NC(=O)CC[C@H](NC(=O)CN(c1nc(Cl)nc2[nH]cnc12)C1CC1)C(=O)OCc1ccccc1 | 30.76 | 33.07 | 42.83 | 36.04 | 31.07 | 19.17 |
| O=C(CN(c1nc(Cl)nc2[nH]cnc12)C1CC1)N[C@@H](Cc1ccccc1)C(=O)O | 29.37 | 32.02 | 26.55 | 8.84 | 6.09 | 4.19 |
| O=C(CN(c1nc(Cl)nc2[nH]cnc12)C1CC1)N[C@@H](CCC(=O)OCc1ccccc1)C(=O)OCc1ccccc1 | 52.8 | 53.74 | 50 | 45.94 | 44.46 | 29.87 |
| NC(=O)C[C@H](NC(=O)CN(c1nc(Cl)nc2[nH]cnc12)C1CC1)C(=O)O | 29.73 | 43.14 | 20.06 | 17.03 | 7.51 | 5.66 |
| CC[C@H](C)[C@H](NC(=O)CN(c1nc(Cl)nc2[nH]cnc12)C1CC1)C(=O)OCc1ccccc1 | 41.39 | 40.63 | 36.28 | 21.97 | 6.9 | 3.38 |
| O=C(CN(c1nc(Cl)nc2[nH]cnc12)C1CC1)N[C@@H](CO)C(=O)O | 38.65 | 39.76 | 43.9 | 39 | 18.83 | 12.32 |
| O=C(CN(c1nc(Cl)nc2[nH]cnc12)C1CC1)N[C@@H](Cc1ccc(O)cc1)C(=O)OCc1ccccc1 | 22.6 | 22 | 15.02 | 13.65 | 9.38 | 4.33 |
| O=C(CN(c1ncnc2c1ncn2C1CCCCO1)C1CC1)N[C@@H](CC(=O)OCc1ccccc1)C(=O)OCc1ccccc1 (some centres undefined) | 31.81 | 38.15 | 25.07 | 7.82 | 0.06 | 0.03 |
| O=C(CN(c1nc(Cl)nc2[nH]cnc12)C1CC1)N[C@@H](Cc1cnc[nH]1)C(=O)OCc1ccccc1 | 29.06 | 26.6 | 15.04 | 10.15 | 5.05 | 4.18 |
| O=C(CN(c1ncnc2c1ncn2C1CCCCO1)C1CC1)N[C@@H](Cc1c[nH]c2ccccc12)C(=O)OCc1ccccc1 (some centres undefined) | 43.53 | 51.9 | 38.93 | 22.58 | 11.45 | 5.15 |
| O=C(CN(c1ncnc2c1ncn2C1CCCCO1)C1CC1)NCC(=O)OCc1ccccc1 (centres undefined) | 55.72 | 40.44 | 25.94 | 17.23 | 7.26 | 0.06 |
